# How the values were obtained:
# [1] = test system: clinically latent microorganisms; experiment: Screening for ability to kill clinically latent microorganisms (method of WO2000028074); type: cell-based; settings: observed by the Applicant
# Source text: International Patent Application, Publication Number WO2000028074 describes a method of screening compounds to determine their ability to kill clinically latent microorganisms. […] This observation has necessitated the development of novel antimicrobials which may be used to kill clinically latent microorganisms.
# By way of example, WO2000028074 describes a suitable method of screening compounds to determine their ability to kill clinically latent microorganisms. A typical method may include the following steps: • (1) growing a bacterial culture to stationery phase; • (2) treating the stationery phase culture with one or more antimicrobial agents at a concentration and or time sufficient to kill growing bacteria, thereby selecting a phenotypically resistant sub-population; • (3) incubating a sample of the phenotypically resistant subpopulation with one or more test compounds or agents; and • (4) assessing any antimicrobial effects against the phenotypically resistant subpopulation.
# [2] = test system: Mupirocin Resistant S. aureus (24 Passages); experiment: Chequerboard analysis of HT00800059 and mupirocin against mupirocin resistant S. aureus (24 passages); type: cell-based, Staphylococcus aureus; settings: for optical density reading at 405 nm: HT00800059 μg/ml: 1024,512,256,128,64,32,16,0, 24 hours
# Experimental: (§1) Staphylococcus aureus (Oxford); Gram positive; Reference strain.
# (§2) Log phase growth of mupirocin resistant Staphylococcus aureus (MSSA) was carried out as follows: • Bacteria were grown in 10 ml of nutrient broth (No. 2, (Oxoid)) overnight at 37° C. with continuous shaking at 120 rpm. The overnight cultures were diluted 1000× with iso-sensitest broth. The cultures were incubated at 37° C. with shaking for 1-2 hours to reach log CFU 6. Viability of the bacteria was estimated by colony forming unit (CFU) counts. From serial 10-fold dilutions of the experimental cultures, 100 μl samples were added to triplicate plates of nutrient agar plates (Oxoid) or blood agar plates (Oxoid). CFUs were counted after incubation of the plates at 37° C. for 24 hours.
# (§3) Bacterial cultures: 10 μl of overnight cultures was added to 10 ml of fresh iso-sensitest broth to make the inoculation to 10^6 CFU/ml. 290 μl of the cell suspension was added to each well of the 96 well plate, which was incubated at 37° C. for 24 hours. 300 μl of iso-sensitest broth without bacterial cells were added to wells of the plate as a no bacterial control.
# (§4) MIC determination: The optical density of the bacterial cells was read at 405 nm using a plate reader (Bio TEK). The MIC concentration was determined as the lowest concentration of drug which inhibits the bacterial growth.
# (§5) Mupirocin was dissolved in DMSO to the stock concentration of 10 mg/ml. HT00800059 was dissolved in H2O to the stock solution 30.07 mg/ml.
# (§6) Mupirocin (10 mg/ml) was firstly diluted to 3.84 mg/ml, then further diluted in a serial of 2 fold dilutions. HT00800059 (30.7 mg/ml) was performed in a serial of 2 fold dilutions.
# (§7) This was followed by the addition of 280 μl of log phase culture at 10^6 CFU/ml to make the final concentrations of each drug as shown in Table 1 and Table 2.
# (§8) In the above table, values in bold text are for HT00800059. Values in plain text are for mupirocin. The numbers shown in each well are μg/ml.
# (§9) Incubation of the compounds with the bacterial suspension was carried out for 24 hours. The kill effects of the drug combination were measured by optical density reading at 405 nm with a plate reader (Bio TEK).
# (§10) The fractional inhibitory concentration (FIC) index was carried out as following: (MIC of drug A, tested in combination)/(MIC of drug A, tested alone)+(MIC of drug B, tested in combination)/(MIC of drug B, tested alone). The interaction was defined as synergistic if the FIC index was <1, additive if the FIC index was =1 and antagonistic if the FIC index was >1.
# [3] = test system: log phase Staphylococcus aureus; experiment: Chequerboard analysis of HT00800059 and mupirocin against log phase Staphylococcus aureus; type: cell-based, Staphylococcus aureus (Oxford)
# Experimental: Staphylococcus aureus (Oxford); Gram positive; Reference strain. Log phase growth of […] sensitive Staphylococcus aureus (MSSA) was carried out as follows: • Bacteria were grown in 10 ml of nutrient broth (No. 2, (Oxoid)) overnight at 37° C. with continuous shaking at 120 rpm. […] The cultures were incubated at 37° C. with shaking for 1-2 hours to reach log CFU 6. Viability of the bacteria was estimated by colony forming unit (CFU) counts. From serial 10-fold dilutions of the experimental cultures, 100 μl samples were added to triplicate plates of nutrient agar plates (Oxoid) or blood agar plates (Oxoid). CFUs were counted after incubation of the plates at 37° C. for 24 hours. […] 290 μl of the cell suspension was added to each well of the 96 well plate, which was incubated at 37° C. for 24 hours. […] MIC determination: The optical density of the bacterial cells was read at 405 nm using a plate reader (Bio TEK). The MIC concentration was determined as the lowest concentration of drug which inhibits the bacterial growth. […] HT00800059 was dissolved in H2O to the stock solution 30.07 mg/ml. […] HT00800059 (30.7 mg/ml) was performed in a serial of 2 fold dilutions. This was followed by the addition of 280 μl of log phase culture at 10^6 CFU/ml to make the final concentrations of each drug as shown. In the above table, values in bold text are for HT00800059. Values in plain text are for mupirocin. The numbers shown in each well are μg/ml. Incubation of the compounds with the bacterial suspension was carried out for 24 hours. The kill effects of the drug combination were measured by optical density reading at 405 nm with a plate reader (Bio TEK). The fractional inhibitory concentration (FIC) index was carried out as following: (MIC of drug A, tested in combination)/(MIC of drug A, tested alone)+(MIC of drug B, tested in combination)/(MIC of drug B, tested alone). The interaction was defined as synergistic if the FIC index was <1, additive if the FIC index was =1 and antagonistic if the FIC index was >1.
# [4] = test system: Mupirocin Resistant S. aureus (28 Passages); experiment: Chequerboard analysis of HT00800059 and mupirocin against mupirocin resistant S. aureus (28 passages); type: cell-based, Staphylococcus aureus; settings: for optical density reading at 405 nm: HT00800059 μg/ml: 1024,512,256,128,64,32,16,0, 24 hours
# Experimental: as §1, §2, §3, §4, §5, §6, §7, §8, §9, §10
# [5] = Staphylococcus aureus, read-out: alone MIC
compound,measurement,setting,value
C/C(=C\C(=O)OCCCCCCCCC(=O)O)C[C@@H]1OC[C@H](C[C@@H]2O[C@H]2[C@@H](C)[C@H](C)O)[C@@H](O)[C@H]1O [Mupirocin],activity against clinically latent microorganisms,[1],little or no activity
same,optical density reading at 405 nm,"[2]; 24 passages, mupirocin 0.125 μg/ml",1.170
same,optical density reading at 405 nm,"[2]; 24 passages, mupirocin 0.25 μg/ml",1.083
same,optical density reading at 405 nm,"[2]; 24 passages, mupirocin 0.5 μg/ml",1.109
same,optical density reading at 405 nm,"[2]; 24 passages, mupirocin 1 μg/ml",1.056
same,optical density reading at 405 nm,"[2]; 24 passages, mupirocin 2 μg/ml",0.863
same,optical density reading at 405 nm,"[2]; 24 passages, mupirocin 4 μg/ml",0.629
same,optical density reading at 405 nm,"[2]; 24 passages, mupirocin 8 μg/ml",0.454
same,optical density reading at 405 nm,"[2]; 24 passages, mupirocin 16 μg/ml",0.386
same,optical density reading at 405 nm,"[2]; 24 passages, mupirocin 21 μg/ml",0.359
same,optical density reading at 405 nm,"[2]; 24 passages, mupirocin 64 μg/ml",0.356
same,optical density reading at 405 nm,"[2]; 24 passages, mupirocin 128 μg/ml",0.358
same,MIC,[2]; [5],16 µg/mL
same,MIC before combination,[2]; resistant strain 24 passages,16 µg/mL
same,MIC post combination,[2]; resistant strain 24 passages,1 µg/mL
same,mupirocin MIC in combination,"[2]; with HT00800059 at 256 μg/ml, 24 passages",1 µg/mL
same,MIC,"[3]; Staphylococcus aureus, summary list, read-out: alone MIC",0.25 µg/mL
same,MIC before combination,[3]; iso-sensitest broth,0.25 µg/mL
same,MIC post combination,[3]; iso-sensitest broth,0.0625 µg/mL
same,MIC before combination,[3]; nutrient broth,0.25 µg/mL
same,MIC post combination,[3]; nutrient broth,0.0625 µg/mL
same,mupirocin MIC in combination,[3]; with HT00800059 at 256 μg/ml,0.0625 µg/mL
same,optical density reading at 405 nm,"[4]; 28 passages, mupirocin 0.125 μg/ml",1.255
same,optical density reading at 405 nm,"[4]; 28 passages, mupirocin 0.25 μg/ml",1.246
same,optical density reading at 405 nm,"[4]; 28 passages, mupirocin 0.5 μg/ml",1.252
same,optical density reading at 405 nm,"[4]; 28 passages, mupirocin 1 μg/ml",1.244
same,optical density reading at 405 nm,"[4]; 28 passages, mupirocin 2 μg/ml",1.208
same,optical density reading at 405 nm,"[4]; 28 passages, mupirocin 4 μg/ml",1.136
same,optical density reading at 405 nm,"[4]; 28 passages, mupirocin 8 μg/ml",0.968
same,optical density reading at 405 nm,"[4]; 28 passages, mupirocin 16 μg/ml",0.726
same,optical density reading at 405 nm,"[4]; 28 passages, mupirocin 32 μg/ml",0.480
same,optical density reading at 405 nm,"[4]; 28 passages, mupirocin 64 μg/ml",0.363
same,optical density reading at 405 nm,"[4]; 28 passages, mupirocin 128 μg/ml",0.346
same,MIC,[4]; [5],64 µg/mL
same,MIC before combination,[4]; resistant strain 28 passages,64 µg/mL
same,MIC post combination,[4]; resistant strain 28 passages,4 µg/mL
same,mupirocin MIC in combination,"[4]; with HT00800059 at 256 μg/ml, 28 passages",4 µg/mL
